Assay [1] can be described thus: luciferase reporter signal suppression in cells – H4 neuroglioma cells, luminescence, dose response (AID 1990). The format is functional, cell-based. For orientation: Reporter assays use an easily measured gene product as a stand-in for the process of interest.
Assay [2] is described as follows: alpha-synuclein stem-loop luciferase translation blockers – H4 neuroglioma cells, luminescence, confirmation (AID 1988). The format is functional, cell-based.
Assay [3] in a line: reduction of Shn3 3'UTR-driven luciferase in osteoblasts – cell-based, Clone20 osteoblasts, firefly luciferase, cherry-picked, dose response (AID 624132).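 Further: firefly luciferase luminescence from reporter carrying the Shn3 3'UTR in osteoblasts.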 The format is functional.
Assay [4] can be described thus: loss of viability in HepG2 cells – cell-based, CellTiter-Glo, cherry-picked, cytotoxicity control for Shn3 inhibitor project, dose response (AID 624134). The format is functional. On the technique in general: ATP-based viability assays read luminescence as a measure of living cells.
Assay [5] is described as follows: non-specific 3'UTR reporter inhibition in Clone20-Shn3RL – cell-based, Renilla luciferase, cherry-picked, counter-screen for Shn3 inhibitor project, dose response (AID 624133). The format is functional. For orientation: A counterscreen serves to expose hits that act by an unwanted route or on another target.
Assay [6] is described as follows: Shn3 transcript knock-down in Clone20 cells – cell-based, qPCR, cherry-pick, dose response (AID 743415). The format is functional.
The nature of assay [7]: Shn3 3'UTR reporter signal decrease – cell-based, Clone20 osteoblasts, firefly luciferase, cherry-pick, set 2, Schnurri-3 inhibitor project, dose response (AID 720490).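 Further: actives lower the luminescence signal as inhibitors.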 The format is functional.
A short description of assay [8]: EF1alpha-driven Renilla reporter with control 3'UTR suppression – Clone20-Shn3RL cells, dual-Glo, cherry-pick, set 2, counter-screen for Shn3 3'UTR targeting project, dose response (AID 720724). The format is functional, cell-based. Particulars: Dual-Go Shn3RL.
Assay [9] in a line: NIH-3T3 fibroblast cytotoxicity, dose response, cytotoxicity control, cell-based, fluorescence, Alamar Blue, secondary assay (AID 2327).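 Further: NIH-3T3 mouse fibroblasts cultured with fluconazole at 8 µg/mL.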 The format is functional.
The nature of assay [10]: fluconazole-exposed Candida albicans growth modulators – fluorescence, retest, confirmation (AID 2467). The format is functional, cell-based.
Assay [11] is described as follows: THP-1 cell cytotoxicity, dose response, cytotoxicity control for non-replicating M. tuberculosis project (AID 489025). The format is functional.
A short description of assay [12]: Vero E6 cell cytotoxicity, dose response, cytotoxicity control for non-replicating M. tuberculosis project, secondary assay (AID 492998). Particulars: Vero C1008. The format is functional, VeroE6.
For assay [13], the target named is 1-phosphatidylinositol 4,5-bisphosphate phosphodiesterase gamma-1 (Homo sapiens, UniProt P19174). Description: Counterscreen for inhibitors of phospholipase C isozymes (PLC-B3): Fluorescence-based biochemical high throughput dose response assay to identify inhibitors of phospholipase C isozymes (PLC-gamma1).
1-phosphatidylinositol 4,5-bisphosphate phosphodiesterase gamma-1, sequence (P19174 whole entry): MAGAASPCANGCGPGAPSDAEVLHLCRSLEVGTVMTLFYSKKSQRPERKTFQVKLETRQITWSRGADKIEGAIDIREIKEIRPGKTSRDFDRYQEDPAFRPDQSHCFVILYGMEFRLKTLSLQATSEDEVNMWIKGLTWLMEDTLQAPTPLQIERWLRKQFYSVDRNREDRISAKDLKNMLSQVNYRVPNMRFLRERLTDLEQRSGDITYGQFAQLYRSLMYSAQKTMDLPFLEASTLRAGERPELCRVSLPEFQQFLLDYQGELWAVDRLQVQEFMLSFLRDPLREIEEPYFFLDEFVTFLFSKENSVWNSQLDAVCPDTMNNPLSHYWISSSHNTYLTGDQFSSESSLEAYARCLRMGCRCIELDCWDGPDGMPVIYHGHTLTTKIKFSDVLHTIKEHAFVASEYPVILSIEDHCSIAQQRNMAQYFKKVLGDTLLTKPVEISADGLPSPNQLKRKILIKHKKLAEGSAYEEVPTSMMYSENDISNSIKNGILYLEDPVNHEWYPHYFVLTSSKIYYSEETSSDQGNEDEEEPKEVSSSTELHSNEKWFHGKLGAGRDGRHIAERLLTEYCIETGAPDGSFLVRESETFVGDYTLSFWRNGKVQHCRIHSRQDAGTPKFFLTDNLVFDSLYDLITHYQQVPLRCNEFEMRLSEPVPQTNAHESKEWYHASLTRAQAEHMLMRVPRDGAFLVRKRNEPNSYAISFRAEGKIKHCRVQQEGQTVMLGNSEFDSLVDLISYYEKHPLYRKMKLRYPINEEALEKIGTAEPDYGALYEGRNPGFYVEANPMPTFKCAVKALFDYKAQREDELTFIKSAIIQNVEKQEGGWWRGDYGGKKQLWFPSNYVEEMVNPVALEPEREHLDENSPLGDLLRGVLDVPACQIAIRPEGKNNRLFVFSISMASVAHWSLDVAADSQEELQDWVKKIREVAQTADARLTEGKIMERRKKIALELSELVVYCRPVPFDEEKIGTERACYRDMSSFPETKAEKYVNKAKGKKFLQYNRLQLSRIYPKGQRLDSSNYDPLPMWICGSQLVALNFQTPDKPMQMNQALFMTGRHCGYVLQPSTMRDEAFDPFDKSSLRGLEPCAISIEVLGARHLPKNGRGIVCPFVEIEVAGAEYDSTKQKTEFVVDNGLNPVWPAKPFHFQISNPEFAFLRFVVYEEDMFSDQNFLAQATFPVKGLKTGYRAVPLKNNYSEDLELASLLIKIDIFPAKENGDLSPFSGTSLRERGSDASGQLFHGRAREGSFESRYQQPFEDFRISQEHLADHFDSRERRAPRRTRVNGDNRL
For assay [14], the target named is 1-phosphatidylinositol 4,5-bisphosphate phosphodiesterase beta-3 (Homo sapiens, UniProt Q01970). Description: Fluorescence-based biochemical high throughput dose response assay to identify inhibitors of phospholipase C isozymes (PLC-B3).
1-phosphatidylinositol 4,5-bisphosphate phosphodiesterase beta-3, sequence (Q01970 whole entry): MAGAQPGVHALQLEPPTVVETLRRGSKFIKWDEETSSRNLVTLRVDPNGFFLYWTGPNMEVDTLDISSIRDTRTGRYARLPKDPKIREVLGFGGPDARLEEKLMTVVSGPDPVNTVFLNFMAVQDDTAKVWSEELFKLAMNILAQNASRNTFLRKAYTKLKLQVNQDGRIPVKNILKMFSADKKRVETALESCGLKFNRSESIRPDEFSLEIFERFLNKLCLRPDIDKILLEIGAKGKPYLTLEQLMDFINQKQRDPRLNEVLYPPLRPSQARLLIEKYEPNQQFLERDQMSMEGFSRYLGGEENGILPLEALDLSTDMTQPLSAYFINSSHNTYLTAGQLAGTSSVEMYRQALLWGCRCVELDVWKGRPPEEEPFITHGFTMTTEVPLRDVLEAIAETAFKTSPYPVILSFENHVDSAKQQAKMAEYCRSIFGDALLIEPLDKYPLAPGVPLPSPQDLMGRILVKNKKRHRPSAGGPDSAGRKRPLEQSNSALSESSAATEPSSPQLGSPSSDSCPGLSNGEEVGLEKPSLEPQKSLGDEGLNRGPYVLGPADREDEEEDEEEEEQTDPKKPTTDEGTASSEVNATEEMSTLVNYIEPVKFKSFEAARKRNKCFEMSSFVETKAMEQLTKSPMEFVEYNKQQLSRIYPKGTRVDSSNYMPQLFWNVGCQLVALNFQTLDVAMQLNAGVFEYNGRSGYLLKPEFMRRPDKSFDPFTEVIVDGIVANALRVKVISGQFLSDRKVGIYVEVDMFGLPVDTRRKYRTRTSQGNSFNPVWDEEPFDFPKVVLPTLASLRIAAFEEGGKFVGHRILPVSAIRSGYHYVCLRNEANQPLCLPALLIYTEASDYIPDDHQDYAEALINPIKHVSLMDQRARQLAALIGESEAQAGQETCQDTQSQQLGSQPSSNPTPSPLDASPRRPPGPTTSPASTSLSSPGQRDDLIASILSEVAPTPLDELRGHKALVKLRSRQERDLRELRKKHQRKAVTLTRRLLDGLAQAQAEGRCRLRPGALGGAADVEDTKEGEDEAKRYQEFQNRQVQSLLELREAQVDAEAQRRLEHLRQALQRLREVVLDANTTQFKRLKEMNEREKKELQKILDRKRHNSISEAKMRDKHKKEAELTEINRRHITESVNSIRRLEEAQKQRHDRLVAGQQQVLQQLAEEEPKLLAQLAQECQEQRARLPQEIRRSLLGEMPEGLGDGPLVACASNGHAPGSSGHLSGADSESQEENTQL
The subject of assay [15] is Streptococcus sp. 'group A'. The assay can be described thus: Streptococcus pyogenes SK(-)GAS viability under kanamycin – luminescence, BacTiterGlo, confirmation, counter-screen for streptokinase expression inhibitor project, dose response (AID 1900). The format is functional, organism-based.
A further assay deals with T1, Streptokinase A (Streptococcus pyogenes serotype M1, UniProt P10520).
T1 sequence (P10520 whole entry): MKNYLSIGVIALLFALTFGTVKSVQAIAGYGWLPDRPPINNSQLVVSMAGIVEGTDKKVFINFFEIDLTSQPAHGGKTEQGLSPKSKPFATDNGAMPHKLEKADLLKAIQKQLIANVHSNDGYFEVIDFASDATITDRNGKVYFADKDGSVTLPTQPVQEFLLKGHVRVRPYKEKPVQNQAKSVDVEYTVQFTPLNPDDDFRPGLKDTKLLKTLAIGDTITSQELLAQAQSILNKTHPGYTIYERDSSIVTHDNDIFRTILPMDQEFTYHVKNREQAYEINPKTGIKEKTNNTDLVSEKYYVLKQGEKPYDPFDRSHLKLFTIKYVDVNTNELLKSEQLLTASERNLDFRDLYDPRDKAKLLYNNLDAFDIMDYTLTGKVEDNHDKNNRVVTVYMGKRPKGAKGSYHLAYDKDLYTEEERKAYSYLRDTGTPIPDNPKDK
Description: viability-normalized secreted streptokinase activity reduction – plasminogen activation absorbance, OD405, dose response (AID 1914).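 Further: secreted streptokinase activity via plasminogen activation per viability signal from cell pellet.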 The format is functional, Streptococcus pyogenes M1 GAS.

The next assay deals with Streptococcus. The assay can be described thus: GAS UMAA2166 growth inhibition – luminescence, BacTiterGlo, counter-screen for streptokinase expression inhibitor project, dose response (AID 1915).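 Further: potency for reduction of bacterial viability or growth.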 The format is functional, organism-based.
Assay [16] in a line: cells. The format is functional.
A short description of assay [17]: TB: CFU replicating Measured in Microorganism System Using Imaging - 7108-05_Inhibitor_Dose_DryPowder_Activity_Set2. The format is functional.
A short description of assay [18]: Trypanosoma cruzi growth suppression in host cells – NIH3T3 host cells, beta-gal luminescence, confirmation (AID 2044).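 Further: intracellular parasites grown in NIH/3T3 mouse fibroblasts as host cells; luminescent beta-galactosidase reporter signal from transgenic T. cruzi replicating inside host cells; inhibitors lower the luminescence signal.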 The format is functional, cell-based.
Assay [19] can be described thus: NIH3T3 cell viability loss – ATP luminescence, mouse fibroblasts, counter-screen, dose response (AID 2010).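 Further: cells exposed to compound for about 90 hours before reading.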 The format is functional, cell-based.
Assay [20] in a line: blockers of FN fibrillogenesis by fibroblasts – AH1F cells, Alexa488-FN fluorescence, cherry-picks, dose response (AID 1035475). The format is functional, cell-based.
Assay [21] is described as follows: Luminescence-based cell-based high throughput dose response assay to identify activators of the DAF-12 from the parasite S. stercoralis (ssDAF-12). The format is functional.
The target in assay [22] is T2, Oxysterols receptor LXR-beta (Homo sapiens, UniProt P55055).
T2 sequence (P55055 whole entry): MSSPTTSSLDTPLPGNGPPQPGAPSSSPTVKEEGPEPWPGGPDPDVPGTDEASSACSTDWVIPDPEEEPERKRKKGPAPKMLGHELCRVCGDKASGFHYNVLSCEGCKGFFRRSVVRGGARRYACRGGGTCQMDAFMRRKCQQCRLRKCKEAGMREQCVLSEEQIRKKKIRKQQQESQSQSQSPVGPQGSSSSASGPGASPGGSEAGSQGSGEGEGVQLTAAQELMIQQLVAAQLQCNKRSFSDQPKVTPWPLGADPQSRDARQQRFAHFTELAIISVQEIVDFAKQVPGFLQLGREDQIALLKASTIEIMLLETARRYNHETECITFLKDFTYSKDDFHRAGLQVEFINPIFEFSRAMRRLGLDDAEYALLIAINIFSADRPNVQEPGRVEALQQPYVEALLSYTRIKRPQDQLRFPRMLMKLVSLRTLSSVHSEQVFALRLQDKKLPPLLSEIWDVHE
Description: LXR agonists, Gal4 luciferase reporter, dose response, counter-screen for ssDAF-12 agonist project, cell-based, luminescence, HEK293, S. stercoralis campaign (AID 720737). The format is functional. Particulars: read-out: IC50 (the source's name).

The target of assay [23] is T3, Acyl-homoserine lactone acylase PvdQ (Pseudomonas aeruginosa (strain LESB58), UniProt Q9I194).
T3 sequence (Q9I194 whole entry): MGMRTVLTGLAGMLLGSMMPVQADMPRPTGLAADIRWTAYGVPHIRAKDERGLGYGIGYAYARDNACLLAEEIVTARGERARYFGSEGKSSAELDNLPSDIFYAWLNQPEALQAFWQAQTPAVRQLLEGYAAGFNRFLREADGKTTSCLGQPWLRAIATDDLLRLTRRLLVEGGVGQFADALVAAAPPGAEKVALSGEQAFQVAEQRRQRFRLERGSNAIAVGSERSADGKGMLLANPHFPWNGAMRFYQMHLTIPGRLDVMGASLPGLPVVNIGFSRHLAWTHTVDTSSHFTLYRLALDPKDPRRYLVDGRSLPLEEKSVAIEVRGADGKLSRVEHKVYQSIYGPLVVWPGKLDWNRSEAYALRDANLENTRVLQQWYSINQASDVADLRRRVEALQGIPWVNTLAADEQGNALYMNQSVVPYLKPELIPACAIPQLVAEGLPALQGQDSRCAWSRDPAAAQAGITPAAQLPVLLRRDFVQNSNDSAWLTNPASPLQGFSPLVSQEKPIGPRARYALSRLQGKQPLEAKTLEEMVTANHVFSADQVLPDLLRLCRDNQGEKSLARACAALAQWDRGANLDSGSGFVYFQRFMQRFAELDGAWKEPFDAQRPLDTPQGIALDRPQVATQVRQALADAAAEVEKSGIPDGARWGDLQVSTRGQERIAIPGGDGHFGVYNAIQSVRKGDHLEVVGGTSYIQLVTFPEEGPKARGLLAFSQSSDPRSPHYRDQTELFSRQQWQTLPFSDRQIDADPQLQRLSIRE
The assay can be described thus: PvdQ acylase enzyme activity blockers – biochemical, fluorescence, plate reader and imaging, cherry-picks, dose response (AID 493231).

The target in assay [24] is T2, Oxysterols receptor LXR-beta. The format is functional, cell-based.
Assay [25] in a line: cells.

Activity calls are given as the source filed them. Bounds are passed on as bounds.

What is called AC50 is the concentration giving half of the maximal activity seen. One may read the CC50 as the concentration at which the toxic effect on the cells reaches its halfway point. For orientation: IC50 means the midpoint of a concentration-inhibition curve.

With `COc1ccc(NC(=O)c2nc(S(=O)(=O)Cc3cccc(C)c3)ncc2Cl)c(OC)c1`, the EC50 in assay [1] was 19.2 µM (active); in assay [2], 36.7 µM (active). For the same compound, the AC50 in assay [3] was 0.299 µM (active); in assay [4] it was > 70 µM (inactive); in [5] it was 8.06 µM (active); in assay [6], 10 µM (active); in [7], 1.48 µM (active); in assay [8], 3.35 µM (active).

Take `Cc1ccc(S(=O)(=O)CCC(=O)Nc2nc(-c3ccncc3)cs2)cc1`: the EC50 is 17.1 µM (inconclusive) in [9] and 6.58 µM (active) in assay [10]. Further, the CC50 in [11] was > 40 µM (active); in [12] it was > 20 µM (active). Besides, the IC50 in assay [13] and in assay [14] was > 122 µM (inactive) in each case.

On to `Cn1c(NC(=O)c2ccccc2)nc2ccccc21`, for which the results for the EC50 (in assay [15]; on Streptokinase A; in the assay on Streptococcus) were 14.8 µM (active), > 150 µM (not active) and > 150 µM (not active), respectively. Further, the CC50 in [11] was > 40 µM (active). Besides, in the assay “cells [16]”, the IC50 was 2.41 µM (active). Also, in assay [17], the AbsAC90 was found to be 299.99 µM.

Turning to `O=C(Nc1cc(Sc2nc3ccccc3s2)cc([N+](=O)[O-])c1)c1ccccc1F`, the figures for the EC50 in [18] and in assay [19] were 1.92 µM (active) and > 60 µM (not active), respectively. Moreover, the concentration at half-maximal activity (AC50) in [20] is 24.3 µM (active).

As to `Cc1ccc([N+](=O)[O-])cc1NC(=O)C1CCCC1`, the IC50 in assay [21] was > 67.5 µM (inactive). Besides, the EC50 in [22] was > 67.5 µM (inactive).

Turning to `COc1ccc(-c2cc(=O)c3ccccc3s2)cc1`, the AC50 in assay [23] is > 100 µM (inactive). In addition, the EC50 (in assay [24]; in the assay “cells [25]”) was > 67.5 µM (inactive) in each case.
